This test relates to Plasmodium falciparum Dd2 asexual blood stage parasites. In words: microbe, parasite or virus in culture. The following applies: Plasmodium falciparum, DD2, Erythrocyte, 72 h; read-out: AC50. Also on record: species or system Plasmodium falciparum Dd2 in human erythrocytes; single determination (one 11-point concentration-response curve).
One may read the AC50 as the concentration giving half of the maximal activity seen. For the compound `CN(C)c1ccc(CN2CCC3(CC2)COc2ccccc2C(=O)N3)cc1` [NCGC00477464-01], the AC50 stood at 2.66 µM. The value for `CSc1cccc(NC(=O)Cn2c(-c3ccc(F)cc3)nc(C)c(CCO)c2=O)c1` [NCGC00470986-01] was 13.3 µM; that for `Cc1cccc(C(=O)N2CCc3cc(CNC(=O)c4ccc(Br)o4)ccc32)c1` [NCGC00137781-01] was 9.44 µM; that for `Cc1ccc(-n2c(C3CCN(C(=O)COc4ccc(Cl)cc4)CC3)n[nH]c2=O)cc1` [NCGC00451295-01] was 10.6 µM. The value for `COc1ccccc1CNC(=O)[C@@H](C)C1CC[C@@]2(C)CC[C@H](NC(=O)c3cncnc3)[C@@H](C)[C@@H]2[C@H]1O` (some centres unmarked) [NCGC00395379-01] was 2.37 µM; that for `CCOC(=O)c1cc(C)n(Cc2ccc(OCC)c(OC)c2)c1C` [MLS000521227-01] was 10.6 µM.

Take `Cc1cccc(-c2cc(C3CCN([S+](=O)([O-])c4cccc(C#N)c4)CC3)[nH]n2)c1` [NCGC00433033-01]: the AC50 was determined as 15 µM.

For `COc1ccc(-c2nn(-c3ccc(F)cc3)c(OC(C)=O)c2-c2ccc(NC(C)=O)cc2)cc1OC` [NCGC00473193-01], the half-maximal activity concentration (AC50) came to 15 µM. Turning to `CC(=O)Nc1cccc(-c2cc(C(=O)NCc3c(C)cc(C)[nH]c3=O)c3c(c2)N(C(C)C)CCO3)c1` [NCGC00417042-01], the AC50 was found to be 9.44 µM. With `COc1ccc(S(=O)(=O)N2CCN(/C(S)=N/C3CCCCC3)CC2)cc1` [MLS000690529-01], the AC50 was 6.68 µM. The figure for `Cc1cccc(OCCSc2nc3ccc(NC(=O)c4cccs4)cc3s2)c1` [NCGC00118842-01] is 9.44 µM; for `Cc1cc(NC(=O)CSc2ccc3nnc(-c4cccc(F)c4)n3n2)no1` [MLS000093339-01] it is 5.96 µM.

`Cc1nc(-c2ccco2)cc([C@H]2CN3CC[C@H]2C[C@@H]3CNCc2ccccc2)n1` [NCGC00401513-01]: the AC50 was found to be 4.33 µM. The figure for `CC(=O)c1c(S)nc(-c2ccccc2)nc1N1CCN(C)CC1` [MLS000519428-01] is 5.96 µM; for `CCOC(=O)c1c(CSC(=N)N)n(-c2ccc(C)cc2)c2cc(Br)c(OC(C)=O)cc12` [MLS001304955-01] it is 5.96 µM.

For the compound `COc1ccc(-c2nc(Cn3c(SCc4ccccc4F)nc4ccncc43)c(C)o2)cc1OC` [NCGC00113862-01], the AC50 came out at 8.41 µM.

Consider `CC1=CC(C)(C)Nc2ccc(OC(=O)c3cccnc3)cc21` [MLS000111190-01], for which the AC50 was 13.3 µM. The value for `COc1cccc(NC(=O)N[C@H]2C[C@@H](c3nc(C)no3)N(C)C2)c1` [NCGC00395440-01] was 17.2 µM; that for `COc1ccccc1N1CCN([C@H]2[C@@H]3OC[C@@H](O3)[C@@H](NCc3ccc(-c4ccccc4)cc3)[C@@H]2O)CC1` [NCGC00392675-01] was 15 µM; that for `O=[S+]([O-])(c1ccccc1)N1CC(CNc2cccnc2)C2(CN(c3ccccc3)C2)C1` (centres unmarked) [NCGC00415961-01] was 21.7 µM.

In the case of `CCOc1ccccc1NC(=O)C1CCN([S+](=O)([O-])c2c(C)noc2/C=C/c2ccco2)CC1` [NCGC00109315-01], the AC50 was found to be 15 µM.

Consider `Cc1ccccc1N(C)C1CN(Cc2ccccc2)C1` [NCGC00476681-01], for which the AC50 is 19.3 µM. Regarding `COC[C@H]1CCCN1[C@@H]1[C@H](O)[C@H](CO)O[C@@H]1CN(Cc1cccc(Cl)c1)Cc1cccc(Cl)c1` [NCGC00391669-01], the AC50 came to 10.6 µM. Regarding `CC(=O)c1ccc(N2CCN(c3nc4c([S+](=O)([O-])c5ccccc5)nnn4c4ccc(Cl)cc34)CC2)cc1` [NCGC00112340-01], the AC50 was 3.35 µM. The figure for `CC(=O)Nc1cccc(OCc2nnc(C(=O)N3CCC[C@@H]3C(c3ccccc3)c3ccccc3)n2-c2ccccc2)c1` [NCGC00415783-01] is 10.6 µM; for `Cc1cc(C(=O)CN2C(=O)NC(C)(c3cccc(Br)c3)C2=O)c(C)n1Cc1ccco1` (centres unmarked) [MLS000055137-01] it is 13.3 µM.

Regarding `COc1cccc(C2=C(C(C)=O)Sc3nnc(C4CCCCC4)n3N2C(C)=O)c1` [NCGC00137294-01], the AC50 is 4.73 µM.

Consider `O=C(c1nc(-c2cccc(C(F)(F)F)c2)c2cnccn12)N1CCCC1` [NCGC00476432-01], for which the AC50 was found to be 10.6 µM. The figure for `Cc1cccc(C)c1-n1ncc(C(=O)NCCCN2CCC(C)CC2)c1C1CCN(C(=O)OC(C)(C)C)CC1` [NCGC00127064-01] is 15 µM; for `O=C(CC(c1ccc(F)cc1)c1cn(Cc2ccccc2)c2ccc([N+](=O)[O-])cc12)N1CCOCC1` (centres unmarked) [NCGC00473380-01] it is 9.44 µM; for `COc1cc2nc(NCCc3cccc(C)c3)n3nc(-c4ccccc4)nc3c2cc1OC` [NCGC00112859-01] it is 0.841 µM.

As to `COc1ccc2[nH]c(C)c(CCN(Cc3cccs3)C(S)=Nc3ccc(F)cc3)c2c1` [MLS000529849-01], the AC50 worked out at 4.22 µM. The figure for `CC1=C[C@@H](CN2CCC[C@H]2CO)[C@H](C(C)C)C[C@H]1Cc1nnc(-c2ccc(N(C)C)cc2)o1` [NCGC00394794-01] is 13.3 µM. The value for `COc1cccc(NC(=O)c2ccc(-c3nnc4ccc(NC(=O)C5CCC5)cn34)cc2)c1` [NCGC00429881-01] was 3.76 µM; that for `O=C(NC1CCCC1)c1ccc(OC2CCN(CCCC(F)(F)F)CC2)c(Cl)c1` [NCGC00429036-01] was 9.44 µM. `COc1ccc2nc3oc(C(=O)N4CC(C)CC(C)C4)cc3cc2c1` (centres unmarked) [MLS000912759-01]: the AC50 stood at 8.41 µM.

`Cc1ccc(C(=O)N2CCC(c3c[nH]c4ccccc34)(c3c[nH]c4ccccc34)CC2)cc1` [NCGC00113768-01]: the AC50 worked out at 8.41 µM. The figure for `COc1ccc(/C=C\c2onc(C)c2[S+](=O)([O-])N2CCC(C(=O)Nc3ccc(C)cc3C)CC2)cc1` [NCGC00109197-01] is 0.841 µM; for `COc1cc2c(cc1Oc1ccccc1)NC(=O)C21CCN(c2cnccn2)CC1` [NCGC00416813-01] it is 2.17 µM; for `CCCCC(O)(c1ccc(F)cc1)C(CN1CCOCC1)c1ccc(Cl)cc1` (centres unmarked) [MLS001200342-01] it is 5.96 µM. The value for `CN(Cc1ccccc1)C(=O)[C@H]1O[C@H](CCN2CCN(c3ccc(F)cc3)CC2)CC[C@@H]1O` [NCGC00401502-01] was 5.96 µM. The figure for `CN1N=C(C(=O)N2CCc3c([nH]c4ccccc34)C2c2ccccc2Cl)CCC1=O` (centres unmarked) [MLS000733406-01] is 5.31 µM; for `COc1ccc(NC(=O)c2nnn3c2CN(Cc2cccc(Cl)c2)C(=O)CC3)c(C)c1` [NCGC00415347-01] it is 2.17 µM; for `CCN(CC)S(=O)(=O)c1ccc(N2CCCCC2)c(NC(=O)C2=COCCO2)c1` [MLS001150729-01] it is 6.68 µM. Regarding `CN1CCN(C(=O)c2ccc3c(c2)N(Cc2c(F)cccc2Cl)C(=O)c2ccccc2S3)CC1` [NCGC00108178-01], the AC50 amounted to 0.0596 µM. The value for `O=C(Cc1ccccc1F)N1CCOc2ccc(CN3CCc4ccccc4C3)cc2C1` [NCGC00471206-01] was 13.3 µM; that for `CCOc1ccc2c(c1)OC(c1ccc(C)cc1)(C(F)(F)F)NC2=O` (centres unmarked) [MLS000392832-01] was 2.66 µM.

Turning to `COc1ccc(C2CC(c3cccs3)=NN2C(=O)c2ccc(Br)o2)cc1` (centres unmarked) [MLS000663972-01], the AC50 worked out at 5.31 µM.

As to `CC1(c2ccccc2)N(Cc2ccccc2)C(=O)OC12CCN(Cc1cccc(O)c1)CC2` (centres unmarked) [NCGC00415604-01], the AC50 is 8.41 µM. With `Cn1c2ccc(F)cc2c2nnc(SCCN3CCCCC3)nc21` [NCGC00102309-01], the AC50 is 15 µM.

Source of the values: paper PMC7822874, “Chemoprotective antimalarials identified through quantitative high-throughput screening of Plasmodium blood and liver stage parasites” (Scientific Reports, 2021).
